{"source": "patent US9821026B2", "about": "“Use of RET agonist molecules for haematopoietic stem cell expansion protocols and transplantation therapy and a RET agonist kit” (Instituto de Medicina Molecular, priority 2012, dated 2017)", "key": {"E14.5 LSK cells": {"system": "E14.5 LSK cells", "test": "Survival (AnnexinV) of LSK/HSC cells cultured with GFL/GFRα", "type": "cell-based, mouse", "settings": "versus conventional medium / medium alone, FIG. 3d-e, FIG. 10c", "procedure": "(§1) 10^6 E14.5 WT Lin^negcKit^pos cells were cultured in DMEM and starved for 2 hours. To test CREB phosphorilation upon GFL stimulation Lin^negcKit^poscells were stimulated 1 hour with 500 ng/ml of each GFL and co-receptor. LSK cells were purified by flow cytometry and stimulated overnight with GFL/GFRα combinations in order to determine Bcl2 and Bcl2l1 expression levels. For inhibition experiments cells were incubated 2 hours prior GFLs stimulation, to test CREB phosphorilation, or during overnight stimulation with GFLs, to determine Bcl2 and Bcl2l1 expression levels, with SB 202190 and PD98,059 from Sigma-Aldrich or Akt1/2, Akt Inhibitor VIII and CBP-CREB Interaction Inhibitor from Calbiochem. Lin^negcKit^pos cells were stimulated with GFL/GFRα for 120 hours and 2.5×10^5 CD45.2^posLin^negcKit^pos cells were sequentially analysed by flow cytometry and transplanted into lethally irradiated hosts with a radio-protective dose 2.5×10^5 CD45.1 BM cells. To detect Annexin V, 4×10^4 E14.5 WT or Ret^−/−Lin^negckit^pos cells per well were cultured overnight in DMEM alone or with GFL/GFRα. When analysed by flow cytometry haematopoietic progenitors were further stained with an LSK antibody cocktail."}, "RET [1]": {"system": "RET", "test": "Bcl2 and Bcl2l1 expression (RT-PCR) in LSK cells upon GFL treatment", "type": "cell-based, mouse", "settings": "overnight GFL/GFRα stimulation; FIG. 3h", "procedure": "as §1, with “To detect Annexin V, 4×10^4 E14.5 WT or Ret^−/−Lin^negckit^pos cells per well were cultured overnight in DMEM alone or with GFL/GFRα.” left out\nReal-time PCR analysis: RNA was extracted from cell suspension using RNeasy Mini Kit or RNeasy Micro Kit (Qiagen). […] Variance was analyzed using F-test. […] Kaplan-Meier survival curves were analyzed using a log rank test. […]"}, "HSCs": {"system": "HSCs", "test": "HSC expansion in culture with RET ligands (recovered LSKs and HSCs treated with GFLs for 4 days)", "type": "cell-based, mouse", "settings": "for HSC expansion in culture (true HSCs recovered): versus conventional medium only, FIG. 3d"}, "lethally irradiated mice": {"system": "lethally irradiated mice", "test": "Competitive transplantation of GFL pre-treated progenitors into lethally irradiated hosts", "type": "in vivo, mouse", "settings": "FIG. 4e-g", "procedure": "Mice: C57BL/6J (CD45.2 and CD45.1), Rag1^−/− (CD45.2 and CD45.1)^29, Vav1-iCre^11, Gfra1^−/−22, Gfra2^−/−24, Gfra3^−/−23, Ret^MEN2B20 and Ret^−/−9 were on a C57BL/6J genetic background. All mice strains were bred and maintained at IMM animal facility. Animal procedures were performed in accordance to national and institutional guidelines. Generation of Ret Conditional Knockout Mice: To generate mice harbouring a conditional Ret knock-out allele we engineered a targeting construct that firstly, included the introduction of a floxed 2.1 kb, Neomycin resistance (Neo^r) cassette under the control of the phosphoglycerate kinase-1 (PGK) promoter and a polyA tail (pA). This cassette (PGK-NEO^r-pA) was inserted approximately 4.5 kb upstream at the Xho I site of the pBluescript KS (pBS KS) vector that carried approximately 13 kb of the 5′ end of mouse Ret genomic locus flanking exon 1. […] Colony-Forming Units Assays: 5×10^3 E14.5 Lin^negcKit^pos cells MACS purified (MiltenyiBiotec) from WT, Ret^−/− or Ret^MEN2B were cultured in M3434 (Stem Cell Technologies) and scored at day 8 to 10 by flow cytometry and microscope analysis. 3×10^4 E14.5 Lin^negcKit^pos cells were MACS (MiltenyiBiotec) purified from WT, Ret^−/− or Ret^MEN2B and were injected into lethally irradiated mice (9Gy) and CFUs scored after 8 to 10 days by flow cytometry and microscope analysis. […]"}, "RET [2]": {"system": "RET", "test": "Flow cytometry of kinase/CREB phosphorylation in LSK cells upon GFL stimulation", "type": "cell-based, mouse", "settings": "GFLs for 1 h, FIG. 3g", "procedure": "Intracellular stainings were done using BrdU Flow Kit and anti-BrdU (3D4), 7AAD, anti-Ki-67 (B56), anti-S6 (pS235/pS236) (N7-548) and anti-Akt (pT308) (JI-223.371) from BD Pharmingen, anti-human RET (132507) from R&D Systems, anti-PIP3 (Z-P345) from Echelon Biosciences, anti-CREB (pS133) (87G3), anti-p38 (pT180/Y182) (28B10), anti-Akt (pS473) (D9E) and anti-ERK1/2 (pT202/pY204) (D13.14.4E) from Cell Signaling Technology.\n10^6 E14.5 WT Lin^negcKit^pos cells were cultured in DMEM and starved for 2 hours. To test CREB phosphorilation upon GFL stimulation Lin^negcKit^poscells were stimulated 1 hour with 500 ng/ml of each GFL and co-receptor. LSK cells were purified by flow cytometry and stimulated overnight with GFL/GFRα combinations in order to determine Bcl2 and Bcl2l1 expression levels. […] Lin^negcKit^pos cells were stimulated with GFL/GFRα for 120 hours and 2.5×10^5 CD45.2^posLin^negcKit^pos cells were sequentially analysed by flow cytometry and transplanted into lethally irradiated hosts with a radio-protective dose 2.5×10^5 CD45.1 BM cells. […] When analysed by flow cytometry haematopoietic progenitors were further stained with an LSK antibody cocktail."}}, "data": [{"substance": "glial cell-line derived neurotrophic factor (GDNF) ligands [GFLs]", "values": [{"measurement": "LSK and HSC survival in culture", "setting": "E14.5 LSK cells", "result": "efficiently increased LSK and HSC survival"}, {"measurement": "LSK and HSC survival in culture", "setting": "E14.5 LSK cells; listed as RET ligands", "result": "survive almost three times better"}, {"measurement": "Bcl2/Bcl2l1 expression by LSKs", "setting": "RET [1]", "result": "increased Bcl2/Bcl2l1 expression"}, {"measurement": "differentiation of cells in expansion culture", "setting": "HSCs; RET agonist treatment", "result": "do not alter the differentiation of cells"}, {"measurement": "HSC expansion in culture (true HSCs recovered)", "setting": "HSCs; listed as RET agonist", "result": "three times more true HSCs"}, {"measurement": "HSC expansion in culture (true HSCs recovered)", "setting": "HSCs; listed as RET ligands", "result": "three times higher"}, {"measurement": "number of cells recovered in expansion culture", "setting": "HSCs; versus current conventional medium", "result": "duplicate the number or cells recovered"}, {"measurement": "increase of bona fide HSCs that maintain their stemness", "setting": "HSCs; versus current state-of-the-art expansion methods", "result": 20, "unit": "fold"}, {"measurement": "transplantation fitness and HSC engraftment", "setting": "lethally irradiated mice; E14.5 LSKs treated with GFLs, transplanted with competitor CD45.1 BM, versus untreated", "result": "strikingly increased transplantation fitness and HSC engraftment"}, {"measurement": "increase in transplantation efficiency of expanded HSCs", "setting": "lethally irradiated mice; versus HSCs expanded in conventional medium", "result": "circa 300 fold"}, {"measurement": "ERK1/2, PI3K/Akt phosphorylation in LSKs", "setting": "RET [2]", "result": "stable"}, {"measurement": "p38/MAP kinase and CREB phosphorylation in LSKs", "setting": "RET [2]; FIG. 10e", "result": "rapid p38/MAP kinase and CREB phosphorylation"}]}]}
